Among the data in patent US8759528B2, “Piperidine derivatives, pharmaceutical compositions and uses thereof” (Boehringer Ingelheim International GmbH, priority 2011, dated 2014) are IC50 values, retold here.

In the experiment the target is T1, human ACC2 (Homo sapiens, UniProt O00763).
T1 construct: lacks the 128 amino acids at the N-terminus for increased solubility (nt 385-6966 in Genbank entry AJ575592); made in house; host or cells: insect cells (baculoviral expression system)
T1 sequence (O00763 129-2458 limits assumed): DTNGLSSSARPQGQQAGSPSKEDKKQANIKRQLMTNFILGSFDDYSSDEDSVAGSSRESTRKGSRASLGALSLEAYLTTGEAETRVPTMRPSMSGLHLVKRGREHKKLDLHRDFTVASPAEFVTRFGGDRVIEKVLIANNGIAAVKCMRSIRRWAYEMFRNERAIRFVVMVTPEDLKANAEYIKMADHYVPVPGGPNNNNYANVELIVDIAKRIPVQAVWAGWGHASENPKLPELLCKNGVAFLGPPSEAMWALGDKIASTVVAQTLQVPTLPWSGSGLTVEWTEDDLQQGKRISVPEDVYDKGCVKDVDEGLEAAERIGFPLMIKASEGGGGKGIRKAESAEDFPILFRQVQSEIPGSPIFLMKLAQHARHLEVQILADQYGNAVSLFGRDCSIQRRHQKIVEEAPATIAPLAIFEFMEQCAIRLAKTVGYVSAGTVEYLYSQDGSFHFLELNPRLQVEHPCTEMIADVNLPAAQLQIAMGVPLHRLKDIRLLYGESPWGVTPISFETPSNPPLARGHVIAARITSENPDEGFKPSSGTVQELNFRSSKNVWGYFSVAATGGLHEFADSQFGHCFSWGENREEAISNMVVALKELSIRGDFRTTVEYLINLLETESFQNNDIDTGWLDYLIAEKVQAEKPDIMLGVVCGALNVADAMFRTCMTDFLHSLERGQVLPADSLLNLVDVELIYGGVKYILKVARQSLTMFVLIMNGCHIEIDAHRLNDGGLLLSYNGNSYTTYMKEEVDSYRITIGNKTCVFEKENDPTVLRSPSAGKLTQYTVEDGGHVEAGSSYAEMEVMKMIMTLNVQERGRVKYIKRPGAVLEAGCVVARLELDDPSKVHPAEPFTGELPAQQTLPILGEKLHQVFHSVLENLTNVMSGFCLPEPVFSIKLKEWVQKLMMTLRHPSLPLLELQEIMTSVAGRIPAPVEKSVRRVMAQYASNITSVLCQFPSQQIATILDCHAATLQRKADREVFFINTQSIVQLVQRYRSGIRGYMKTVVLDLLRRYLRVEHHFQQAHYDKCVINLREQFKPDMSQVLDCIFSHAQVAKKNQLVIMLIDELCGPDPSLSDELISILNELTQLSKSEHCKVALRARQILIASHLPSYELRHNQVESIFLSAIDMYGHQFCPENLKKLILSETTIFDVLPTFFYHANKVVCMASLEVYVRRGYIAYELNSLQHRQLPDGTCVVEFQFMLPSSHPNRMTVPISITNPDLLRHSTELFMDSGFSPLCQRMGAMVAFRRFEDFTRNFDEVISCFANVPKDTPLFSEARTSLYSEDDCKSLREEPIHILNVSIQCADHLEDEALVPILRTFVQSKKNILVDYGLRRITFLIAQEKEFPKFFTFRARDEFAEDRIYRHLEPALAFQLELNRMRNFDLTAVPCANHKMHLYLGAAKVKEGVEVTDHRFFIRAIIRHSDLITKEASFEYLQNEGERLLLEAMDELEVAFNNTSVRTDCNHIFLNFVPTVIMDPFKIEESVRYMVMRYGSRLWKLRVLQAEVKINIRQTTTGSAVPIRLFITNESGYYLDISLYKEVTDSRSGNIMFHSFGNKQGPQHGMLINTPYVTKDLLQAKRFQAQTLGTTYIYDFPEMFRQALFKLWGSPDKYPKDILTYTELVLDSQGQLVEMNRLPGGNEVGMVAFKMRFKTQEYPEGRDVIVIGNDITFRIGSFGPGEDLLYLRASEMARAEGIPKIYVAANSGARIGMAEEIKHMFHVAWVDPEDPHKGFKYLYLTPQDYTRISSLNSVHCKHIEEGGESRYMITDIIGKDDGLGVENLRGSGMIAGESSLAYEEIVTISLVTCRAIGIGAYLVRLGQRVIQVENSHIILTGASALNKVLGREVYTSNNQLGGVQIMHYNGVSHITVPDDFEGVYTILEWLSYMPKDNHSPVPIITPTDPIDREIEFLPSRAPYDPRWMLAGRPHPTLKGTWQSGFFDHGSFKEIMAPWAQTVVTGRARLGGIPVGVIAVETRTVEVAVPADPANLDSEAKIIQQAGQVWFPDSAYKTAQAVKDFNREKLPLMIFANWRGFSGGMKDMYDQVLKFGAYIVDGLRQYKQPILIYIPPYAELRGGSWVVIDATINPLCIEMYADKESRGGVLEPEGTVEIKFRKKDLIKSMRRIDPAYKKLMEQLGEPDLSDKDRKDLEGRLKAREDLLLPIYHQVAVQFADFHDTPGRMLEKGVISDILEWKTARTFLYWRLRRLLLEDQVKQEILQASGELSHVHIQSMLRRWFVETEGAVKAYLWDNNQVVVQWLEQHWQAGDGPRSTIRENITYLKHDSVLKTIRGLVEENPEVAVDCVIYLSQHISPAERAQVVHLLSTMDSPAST
Briefly: ACC2 spectrophotometric 384 well assay (NADH-linked, coupled lactate dehydrogenase/pyruvate kinase). In kind it is biochemical. The note with it: hACC2 construct lacking the 128 N-terminal amino acids; 25° C., 340 nm, 15 minutes. As to the method:
Spectrophotometric 384 Well Assay
Malonyl CoA formation by acetyl CoA carboxylases is stoichometrically linked to the consumption of ATP. ACC2 activity is measured in a NADH-linked kinetic method measuring ADP generated during the ACC reaction using a coupled lactate dehydrogenase/pyruvate kinase reaction.
For biological testing, a human ACC2 construct which lacks the 128 amino acids at the N-terminus for increased solubility (nt 385-6966 in Genbank entry AJ575592) is cloned. The protein is then expressed in insect cells using a baculoviral expression system. Protein purification is performed by anion exchange. All compounds are dissolved in dimethyl sulfoxide (DMSO) to a concentration of 10 mM.
Assay reactions are then carried out in 384-well plates, with hACC2 in an appropriate dilution and at final assay concentrations (f.c.) of 100 mM Tris (pH 7.5), 10 mM trisodium citrate, 25 mM KHCO3, 10 mM MgCl2, 0.5 mg/ml BSA, 3.75 mM reduced L-glutathione, 15 U/ml lactate dehydrogenase, 0.5 mM phosphoenolpyruvate, 15 U/ml pyruvate kinase, compounds at different concentrations at final DMSO concentrations of 1%.
The enzymatic reaction is then started by addition of a mixture of NADH, acetyl Coenzyme A (both […].) and ATP (500 uM f.c.). The decrease of the optical density (slope S) is then determined at 25° C. at a wavelength of 340 nm over 15 minutes in a spectrophotometric reader.
Each assay microtiter plate contains wells with vehicle instead of compound as controls for the non-inhibited enzyme (100% CTL; ‘HIGH’) and wells without acetyl-CoA as controls for non-specific NADH degradation (0% CTL; ‘LOW’).
The slope S is used for calculation of % CTL=(S(compound)−S(‘LOW’))/(S('HIGH)−S(‘LOW’))*100. Compounds will give values between 100% CTL (no inhibition) and 0% CTL (complete inhibition).
For IC50 value determination, the sample slope in the presence of the test compound after subtraction of the low controls (S(compound)−S(‘LOW’)) are used.
An IC50 value is derived from the compound slopes at different dosages after subtraction of the low controls (S(compound)−S(‘LOW’)) by non-linear regression curve fitting (equation y=(A+((B−A)/(1+((C/x)^D))))).
One may read the IC50 as the concentration at which inhibition is half-maximal. `CCNC(=O)C(C)c1ccc(C2CCN(c3ccc(OC(C)C)cc3OC)CC2)cc1` (stereo not drawn) [Example 1.9] registered an IC50 of 510 nM.
Under `CCOc1ccc(N2CCC(c3ccc(C(C)C(N)=O)cc3)CC2)cc1` (stereo not drawn) [Example 4.17] stands 770 nM; under `CCNC(=O)C(C)c1ccc(C2CCN(c3ccc(OCC)cc3F)CC2)cc1` (stereo not drawn) [Example 1.12], 330 nM.
As for `CCOc1ccc(N2CCC(c3ccc(C(C)C(=O)NC)cc3)CC2)cc1` (stereo not drawn) [Example 4.3], the figure is 760 nM.
Under `CN(c1nccc(N2CCC(c3ccc(CC(=O)N4CCOCC4)cc3)CC2)n1)C1CCCC1` [Example 4.9] stands 5530 nM; under `CN(c1nccc(N2CCC(c3ccc(CC(=O)Nc4ccccc4)cc3)CC2)n1)C1CCCC1` [Example 4.11], 720 nM.
In turn, `CCOc1ccc(N2CCC(c3ccc(C(C)C(=O)NC4CC4)cc3)CC2)c(C#N)c1` (stereo not drawn) [Example 3.3] registered an IC50 of 140 nM.
Under `CCNC(=O)C(C)c1ccc(C2CCN(c3ccnc(OCC)n3)CC2)cc1` (stereo not drawn) [Example 6.1, 2-{4-[1-(2-Ethoxy-pyrimidin-4-yl)-piperidin-4-yl]-phenyl}-N-ethyl-propionamide] stands 5480 nM; under `CCNC(=O)C(C)c1ccc(C2CCN(c3ccc(OCC4CC4)cc3OC)CC2)cc1` (stereo not drawn) [Example 2.1, 2-{-4-[1-(4-Cyclopropylmethoxy-2-methoxy-phenyl)-piperidin-4-yl]-phenyl}-N-ethyl-propionamide], 750 nM.
As for `CCNC(=O)C(C)c1ccc(N2CCC(c3cccc(OC4CCC4)c3)CC2)cc1` (stereo not drawn) [Example 7.8], the figure is 1650 nM.
As for `CCNC(=O)C(C)c1ccc(C2CCN(c3ccc(OC(C)CC)cc3)CC2)cc1` (stereo not drawn) [Example 1.4], the figure is 890 nM; as for `CCCOc1ccc(N2CCC(c3ccc(C(C)C(=O)NCC)cc3)CC2)cc1` (stereo not drawn) [Example 1.8], 180 nM; as for `CCNC(=O)C(C)c1ccc(C2CCN(c3ccnc(NC(C)C)n3)CC2)cc1` (stereo not drawn) [Example 5.3], 7630 nM.
`CCOc1ccc(N2CCC(c3ccc(C(C)C(=O)NC4CC4)cc3)CC2)cc1` (stereo not drawn) [Example 4.1, N-Cyclopropyl-2-{4-[1-(4-ethoxy-phenyl)-piperidin-4-yl]-phenyl}-propionamide] came in with an IC50 of 100 nM.
`CCNC(=O)C(C)c1ccc(C2CCN(c3ccnc(OC(C)C)n3)CC2)cc1` (stereo not drawn) [Example 6.2]: 3050 nM corresponded to half-maximal inhibition (IC50).
As for `CCNC(=O)C(C)c1ccc(C2CCN(c3ccc(OC4CC4)cc3OC)CC2)cc1` (stereo not drawn) [Example 1.11], the figure is 520 nM.
As for `CCNC(=O)C(C)c1ccc(C2CCN(c3ccnc(N(C)C4CCCC4)n3)CC2)cc1` (stereo not drawn) [Example 5.1, 2-(4-{1-[2-(Cyclopentyl-methyl-amino)-pyrimidin-4-yl]-piperidin-4-yl}-phenyl)-N-ethyl-propionamide], the figure is 370 nM.
Under `CCNC(=O)Cc1ccc(C2CCN(c3ccnc(N(C)C4CCCC4)n3)CC2)cc1` [Example 4.2] stands 400 nM; under `CCNC(=O)C(C)c1ccc(C2CCN(c3ccc(OC)cc3C#N)CC2)cc1` (stereo not drawn) [Example 3.2], 450 nM.
As to `CCNC(=O)C(C)c1ccc(C2CCN(c3ccnc(OCC)c3)CC2)cc1` (stereo not drawn) [Example 1.6], half-maximal inhibition (IC50) required 510 nM.
As for `CCOc1ccc(N2CCC(c3ccc(C(C)C(=O)N(C)C)cc3)CC2)cc1` (stereo not drawn) [Example 4.4], 6650 nM corresponded to half-maximal inhibition (IC50).
In the case of `CCCOc1ccc(N2CCC(c3ccc(C(C)C(=O)NC4CC4)cc3)CC2)c(C#N)c1` (stereo not drawn) [Example 3.4], the IC50 is 120 nM.
Under `CCOc1ccc(N2CCC(c3ccc(C(C)C(=O)N(C)CC)cc3)CC2)cc1` (stereo not drawn) [Example 4.5] stands 5210 nM.
As for `CC(C(=O)NC1CC1)c1ccc(C2CCN(c3ccc(OCC4CC4)cc3)CC2)cc1` (stereo not drawn) [Example 1.14], the figure is 80 nM; as for `CCNC(=O)C(C)c1ccc(N2CCC(c3ccc(OCC4CC4)cc3)CC2)cc1` (stereo not drawn) [Example 7.5], 360 nM; as for `CN(c1nccc(N2CCC(c3ccc(CC(=O)NC4CCCC4)cc3)CC2)n1)C1CCCC1` [Example 4.10], 4180 nM.
As for `CCCOc1cccc(C2CCN(c3ccc(C(C)C(=O)NCC)cc3)CC2)c1` (stereo not drawn) [Example 7.11], the figure is 3850 nM; as for `CCOc1ccc(N2CCC(c3ccc(C(C)C(=O)Nc4ccccc4)cc3)CC2)cc1` (stereo not drawn) [Example 4.6], 80 nM.
Consider `CCNC(=O)C(C)c1ccc(N2CCC(c3ccc(OC(C)C)cc3)CC2)cc1` (stereo not drawn) [Example 7.7], for which half-maximal inhibition (IC50) required 340 nM.
Under `CCCOc1ccc(C2CCN(c3ccc(C(C)C(=O)NCC)cc3)CC2)c(C)c1` (stereo not drawn) [Example 7.10] stands 840 nM; under `COCCNC(=O)Cc1ccc(C2CCN(c3ccnc(N(C)C4CCCC4)n3)CC2)cc1` [Example 4.14], 4830 nM.
Under `CN(c1nccc(N2CCC(c3ccc(CC(=O)NCc4ccccc4)cc3)CC2)n1)C1CCCC1` [Example 4.12] stands 7940 nM; under `CCCOc1ccc(C2CCN(c3ccc(C(C)C(=O)NCC)cc3)CC2)cc1` (stereo not drawn) [Example 7.4], 220 nM.
Compound `CCNC(=O)C(C)c1ccc(N2CCC(c3cccc(OC(C)C)c3)CC2)cc1` (stereo not drawn) [Example 7.12] showed an IC50 of 1800 nM.
As for `CN(c1nccc(N2CCC(c3ccc(CC(N)=O)cc3)CC2)n1)C1CCCC1` [Example 4.7], the figure is 1260 nM; as for `CCNC(=O)C(C)c1ccc(N2CCC(c3ccc(OC4CCC4)cc3)CC2)cc1` (stereo not drawn) [Example 7.9], 120 nM; as for `CCOc1ccc(N2CCC(c3ccc(C(C)C(=O)NCC4CC4)cc3)CC2)cc1` (stereo not drawn) [Example 4.16], 650 nM.
The compound `CCOc1ccc(N2CCC(c3ccc(C(C)C(=O)NC4CC4)cc3)CC2)c(F)c1` (stereo not drawn) [Example 1.13] yielded an IC50 of 140 nM.
As for `CCNC(=O)C(C)c1ccc(C2CCN(c3ccnc(N(C)C)n3)CC2)cc1` (stereo not drawn) [Example 5.2], the figure is 630 nM; as for `CCNC(=O)C(C)c1ccc(C2CCN(c3ccc(OC4CCC4)cc3)CC2)cc1` (stereo not drawn) [Example 1.5], 120 nM.
Take `CCNC(=O)C(C)c1ccc(C2CCN(c3ccc(OC4CC4)cc3)CC2)cc1` (stereo not drawn) [Example 1.2]: the IC50 was 210 nM.
As for `CCCNC(=O)C(C)c1ccc(C2CCN(c3ccc(OCC)cc3)CC2)cc1` (stereo not drawn) [Example 4.15], the figure is 290 nM.
As to `CC(C)CNC(=O)Cc1ccc(C2CCN(c3ccnc(N(C)C4CCCC4)n3)CC2)cc1` [Example 4.13], the IC50 came to 1860 nM.
Under `CCNC(=O)C(C)c1ccc(C2CCN(c3ccc(OCC4CC4)cc3)CC2)cc1` (stereo not drawn) [Example 1.3] stands 240 nM.
Under `CCNC(=O)C(C)c1ccc(N2CCC(c3ccc(OCC4CC4)cc3F)CC2)cc1` (stereo not drawn) [Example 7.2] stands 1010 nM.
As for `CCNC(=O)C(C)c1ccc(C2CCN(c3ccc(OCC)cc3)CC2)cc1` (stereo not drawn) [Example 1.1, 2-{-4-[1-(4-Ethoxy-phenyl)-piperidin-4-yl]-phenyl}-N-ethyl-propionamide], the figure is 240 nM; as for `CCNC(=O)C(C)c1ccc(N2CCC(c3cccc(OCC)c3)CC2)cc1` (stereo not drawn) [Example 7.13], 4840 nM.
In turn, `CC(C(=O)NC1CC1)c1ccc(C2CCN(c3ccc(OCC4CC4)cc3C#N)CC2)cc1` (stereo not drawn) [Example 3.1, 2-{4-[1-(2-Cyano-4-cyclopropylmethoxy-phenyl)-piperidin-4-yl]-phenyl}-N-cyclopropyl-propionamide] had an IC50 of 150 nM.
As for `CCNC(=O)C(C)c1ccc(C2CCN(c3ccc(OC4CCC4)cc3OC)CC2)cc1` (stereo not drawn) [Example 2.2], the figure is 250 nM; as for `CCCOc1ccc(N2CCC(c3ccc(C(C)C(=O)NCC)cc3)CC2)c(OC)c1` (stereo not drawn) [Example 1.7], 320 nM.
In turn, `CCNC(=O)C(C)c1ccc(N2CCC(c3cccc(OCC4CC4)c3)CC2)cc1` (stereo not drawn) [Example 7.6] displayed an IC50 of 2310 nM.
Take `CCN(C)C(=O)Cc1ccc(C2CCN(c3ccnc(N(C)C4CCCC4)n3)CC2)cc1` [Example 4.8]: inhibition was half-maximal at 12500 nM (IC50).
As for `CCOc1ccc(C2CCN(c3ccc(C(C)C(=O)NC4CC4)cc3)CC2)cc1` (stereo not drawn) [Example 7.3], the figure is 890 nM.
Under `CCNC(=O)C(C)c1ccc(N2CCC(c3ccc(OCC)cc3)CC2)cc1` (stereo not drawn) [Example 7.1, 2-{4-[4-(4-Ethoxy-phenyl)-piperidin-1-yl]-phenyl}-N-ethyl-propionamide] stands 1000 nM.
